Experiment [1] has as its system CRL-2351 breast cancer cells. Put plainly: Sulforhodamine B. Format: cell-based. The following applies: Homo sapiens, 120 h, read-out: SRB assay IC50 CRL-2351. For orientation: Sulforhodamine B stains cellular protein and so reports cell mass.
The next experiment relates to AML progenitors. To be noted: ref 23 (Tamburini et al.); cited from earlier work.
Another experiment concerns xenograft tumor. To be noted: mouse model of human cancer; cited from earlier work.

Bounds are passed on as bounds.

As a reminder, the IC50 is the concentration that gives 50% inhibition.

As to `COc1cc2c(cc1OC)-c1nc(N/N=C(\Cc3ccccc3[N+](=O)[O-])C(=O)O)sc1CC2` [(E)-46c, 2-(2-(7,8-Dimethoxy-4,5-dihydronaphtho[1,2-d]thiazol-2-yl)hydrazono)-3-(2-nitrophenyl)propanoic Acid], the IC50 in experiment [1] is over 20 µM.

As for `COc1cc2c(cc1OC)-c1nc(N/N=C(/Cc3ccccc3[N+](=O)[O-])C(=O)O)sc1CC2` [(Z)-46c, 2-(2-(7,8-Dimethoxy-4,5-dihydronaphtho[1,2-d]thiazol-2-yl)hydrazono)-3-(2-nitrophenyl)propanoic Acid], the IC50 in experiment [1] is over 20 µM. Still for that read-out and setting: in the case of `COc1ccc2c(c1OC)OCc1sc(N/N=C(/Cc3ccccc3[N+](=O)[O-])C(=O)O)nc1-2` [(Z)-46b, 2-(2-(6,7-Dimethoxy-4H-chromeno[4,3-d]thiazol-2-yl)hydrazono)-3-(2-nitrophenyl)propanoic Acid] it was over 20 µM. On to `O=C(O)C(Cc1ccccc1[N+](=O)[O-])=NNc1nc(-c2ccc(Cl)c(Cl)c2)cs1` [compound 1, (2-(2-(4-(3,4-dichlorophenyl)thiazol-2-yl)hydrazono)-3-(2-nitrophenyl)propanoic acid)], for which, in the experiment with AML progenitors, the “clonogenic growth of AML progenitors” value is given as “dramatically reduces the clonogenic growth of AML progenitors”. Also, the “inhibition of xenograft tumor growth” value with xenograft tumor was “effectively inhibits xenograft tumor growth”.

Consider `COc1ccc2c(c1OC)OCc1sc(N/N=C(\Cc3ccccc3[N+](=O)[O-])C(=O)O)nc1-2` [(E)-46b, 2-(2-(6,7-Dimethoxy-4H-chromeno[4,3-d]thiazol-2-yl)hydrazono)-3-(2-nitrophenyl)propanoic Acid], for which the IC50 in experiment [1] is over 20 µM. As for `COc1cc2c(cc1OC)-c1nc(N/N=C(\Cc3ccccc3[N+](=O)[O-])C(=O)O)sc1CO2` [(E)-46a, 2-(2-(7,8-Dimethoxy-4H-chromeno[4,3-d]thiazol-2-yl)hydrazono)-3-(2-nitrophenyl)propanoic Acid], the IC50 in experiment [1] was over 20 µM. On to `COc1cc2c(cc1OC)-c1nc(N/N=C(/Cc3ccccc3[N+](=O)[O-])C(=O)O)sc1CO2` [(Z)-46a, 2-(2-(7,8-Dimethoxy-4H-chromeno[4,3-d]thiazol-2-yl)hydrazono)-3-(2-nitrophenyl)propanoic Acid], for which the half-maximal inhibitory concentration (IC50) in experiment [1] was over 20 µM.
